# Patent US20030203963A1, “Antimicrobial agent” (priority 2001, published 2003)
# Assays:
# S cerevisiae H78 = assay: Bioscreen growth inhibition test; type: cell-based, Saccharomyces cerevisiae; details: APP 213, BS010420, 72 h/25° C.
# Protocol: (§1) For broth cultures and Bioscreen testing most bacteria were grown in Brain Heart Infusion (BHI, Oxoid, pH 7.4). Lactobacillus sake A10 was grown in de Man, Rogosa, Sharpe medium ([…], Oxoid). Yeasts were grown in Sabouraud Liquid medium (SLM, Oxoid). Most bacteria were cultured at 30° C. Lactic acid bacteria were grown on solid medium in enriched CO2 atmosphere. Clostridium species were grown in Reinforced Clostridial Medium (RCM) at 37° C. anaerobically. Brochothrix thermosphacta fungi and yeasts were grown at 25° C. Fungi were cultured on Malt Extract Agar (MEA, Oxoid).
# (§2) An automated Microbiology Reader Bioscreen C was used to measure growth curves of the strains in the presence and absence of APP. The Bioscreen C measures the development of turbidity (i.e. growth) kinetically by vertical photometry in 200 wells of a honeycomb microtitre plate, simultaneously. The system consists of a Bioscreen C analyser, which is an incubator and measurement unit, integrated with a PC, software (BioLink v 5.30), printer and a ‘Honeycomb 2’ cuvette multiwell plate. Growth curve data can be analysed within the BioLink software or exported to programs such as Excel.
# (§3) Broth culture media were dispensed in 270 μl volumes into the wells as directed. Serial dilutions of a filter-sterilised APP stock solution were then dispensed into the same wells, as appropriate. The wells were inoculated with 30 μl of an appropriately diluted overnight broth culture or spore suspension, to give a final inoculum level of […]. The tests were incubated in the Bioscreen C for either 24 h at 30° C., or 72 h at 25° C. (depending on the micro-organism under investigation) with readings taken every 20 minutes after the trays were shaken. After the incubation period was complete the data were exported to Excel for analysis.
# Salm Typhimurium S29 = assay: Chicken soup trial at 8° C.; type: cell-based, Salmonella Typhimurium; details: chicken soup at 8° C., TCSM010521, APP215
# Source text: (§4) A local supermarket brand of cream of chicken soup was used as a model food system. 600 g packs were purchased from the local supermarket. This was a ‘fresh home-made type’ of soup that was stored in the chill cabinet, with a short shelf life. It was chosen because it is a rich, nutritious food system containing a range of food components including meat, dairy and vegetable.
# (§5) Ingredients were labelled as: chicken stock (water, duck fat, chicken, salt, flavourings, yeast extracts, pork gelatine, glucose syrup, vegetable concentrate, milk protein, sugar, malto-dextrin, vegetable oil, citric acid, lactose, chicken fat), ilk, chicken (9%), cream (8%), onion, potato, vegetable oil, modified maize starch, wheat flour, lemon juice, salt, white pepper. pH 5.912. Protein: 3.3%; carbohydrate: 4.7%; fat: 7.2%; fibre: 0.2%; sodium: 0.1%
# (§6) For the test the soup was mixed 2:1 in water (to facilitate sampling and mixing) and sterilised by autoclaving at 121° C. for 15 minutes. For each experiment the pH of the soup was recorded; this was between pH 5.79-5.88.
# For TCS010521/8 (incubated at 8° C.), samples were prepared in 27.8 g quantities. 1.5 g of an APP stock solution was added, and the tests inoculated with 0.3 ml of a suitably diluted cell or spore suspension to give a final inoculum of ca. 10^3 cfu/g. APP was tested at 0, 500 and 1000 ppm, and batch number APP20010213 (at 169 mg/ml) was used. […]
# S. cerevisiae 9763 = assay: Chicken soup trial at 8° C.; type: cell-based, Saccharomyces cerevisiae; details: for Effect on growth: chicken soup at 8° C., TCSM010521, APP215
# Source text: as §4, §5, §6
# For TCS010521/8 (incubated at 8° C.), samples were prepared in 27.8 g quantities. 1.5 g of an APP stock solution was added, and the tests inoculated with 0.3 ml of a suitably diluted cell or spore suspension to give a final inoculum of ca. 10^3 cfu/g. APP was tested at 0, 500 and 1000 ppm, and batch number APP20010213 (at 169 mg/ml) was used. The tests were sampled by viable count and then incubated at 8° C. and tested on a twice-weekly basis.
# L. monocytogenes 272 = assay: Chicken soup trial at 20° C.; type: cell-based, Listeria monocytogenes; details: chicken soup at 20° C., TCSM010430, APP20010213
# Source text: as §4, §5, §6
# For TCS010430/20 (incubated at 20° C.) samples were prepared in 18.8 g quantities, to which 1 g of a suitable filter-sterilised APP stock solution was added and an appropriately diluted 0.2 ml inoculum. Great care was again taken to ensure homogeneous distribution of the APP and micro-organisms. […]
# Ps. fluorescens 3756 = assay: Chicken soup trial at 20° C.; type: cell-based, Pseudomonas fluorescens
# Source text: as §4, §5, §6
# For TCS010430/20 (incubated at 20° C.) samples were prepared in 18.8 g quantities, to which 1 g of a suitable filter-sterilised APP stock solution was added and an appropriately diluted 0.2 ml inoculum. Great care was again taken to ensure homogeneous distribution of the APP and micro-organisms. This test was sampled by viable count test on a daily basis.
# Ps. fluorescens = assay: Test in milk; type: cell-based, Pseudomonas fluorescens; details: for Control for: 2000 ppm, TMGB010605
# Protocol: 8.9 ml samples of UHT milk containing 0.5% glucose and the indicator bromocresol purple (0.01%) were prepared and sterilised by autoclaving. The pH before APP addition was pH 6.65. Appropriate stock solutions of APP batch number APP20010215 (at 138 mg/ml) were prepared and filter sterilised. 1 ml of each was added to the milk to prepare tests containing 0, 1000 and 2000 ppm APP. Tests were then inoculated with 100 μl of diluted overnight broth cultures or spore suspensions to give a final inoculum level of ca. 10^3 cfu/ml. These and uninoculated tests were incubated at 20 and 8° C. and examined daily for visible changes compared to uninoculated control.
# Ps. fluorescens 327 = assay: Test in cooked minced chicken slurry; type: cell-based, Pseudomonas fluorescens; details: 2000 ppm, minced chicken slurry at 8° C.
# Protocol: 1 kg of minced chicken (mainly lean meat) was purchased from the local butcher. This was mixed with 1 litre of BHI, mixed and dispensed as 100 g samples prior to autoclaving. When still warm, the meat was re-mixed thoroughly. When cooked, the meat was inoculated with 1 ml of 10^5 spores or cells (from an overnight broth), and re-mixed. The samples were then divided into 3×25 g portions, to which 0.5 ml of filter-sterilised APP20010215 was added (as 5% or 10% stock solutions) or water. An initial viable count was taken, and the samples then incubated at 8° C. and tested twice weekly. The pH of the chicken slurry was 6.42.
# Most yeasts = assay: Lab media at optimum temperature (summary); type: cell-based
# Protocol: as §1, §2, §3
# Salmonella spp = assay: Lab media at optimum temperature (summary); type: cell-based
# Protocol: as §1, §2, §3
# [1] = tests disclosed by Baute et al., Phytochemistry 33 (1993); cited from earlier work
# [2] = 2000 ppm, chicken soup at 20° C., TCSM010430, APP20010213
structure (smiles),measurement,setting,value
"O=C1CC(CO)OC=C1O (centres unmarked) [APP, Ascopyrone P]",APP level causing significant inhibition,S cerevisiae H78,4000
same,APP level causing total inhibition,S cerevisiae H78,>4000
same,Total inhibition for,Salm Typhimurium S29; 500 ppm,Total inhibition by 500 ppm for 25 d
same,Total inhibition for,Salm Typhimurium S29; 1000 ppm,Total inhibition by 1000 ppm for >27 d
same,Effect on growth,S. cerevisiae 9763; 500 ppm,No effect with 500 and 1000 ppm
same,Effect on growth,S. cerevisiae 9763; 1000 ppm,No effect with 500 and 1000 ppm
same,No inhibition (effect on growth of target organism by APP),"S. cerevisiae 9763; Chicken soup at 8° C. pH 5.8, (1000 ppm)",S. cerevisiae (1000
same,Effect on growth,L. monocytogenes 272; 1000 ppm,No significant effect by 1000 ppm
same,Effect on growth,L. monocytogenes 272; 2000 ppm,No total inhibition but reduction of growth rate only by 2000
same,Effect on growth,"Ps. fluorescens 3756; 1000 ppm, chicken soup at 20° C., TCSM010430, APP20010213",No significant effect with 1000 ppm
same,Counts,Ps. fluorescens 3756; [2],undetectable).
same,Total inhibition for,Ps. fluorescens 3756; [2],Total inhibition by 2000 ppm for >42 days (counts
same,Total inhibition (effect on growth of target organism by 2000 ppm APP),Ps. fluorescens 3756; Chicken soup at 20° C. pH 5.8,Ps. fluorescens
same,Control for,Ps. fluorescens; milk at 8° C.,> 7 days
same,Control for,Ps. fluorescens; milk at 20° C.,2 to 3 days
same,Total inhibition (effect on growth of target organism by 2000 ppm APP),Ps. fluorescens; Milk at 8° C. pH 6.65,Ps. fluorescens
same,Partial inhibition (effect on growth of target organism by 2000 ppm APP),Ps. fluorescens; Milk at 20° C. pH 6.65,Ps. fluorescens
same,10^6 reached at,"Ps. fluorescens 327; TCC010704, controls 3 d",10 d
same,Effect on growth,"Ps. fluorescens 327; pH 6.42, TCC010704",No total inhibition
same,Effect on growth of target organism by 2000 ppm APP (remark in No inhibition column),Most yeasts,(enhanced growth)
same,No inhibition (effect on growth of target organism by 2000 ppm APP),Most yeasts,Most yeasts
same,Partial inhibition (effect on growth of target organism by 2000 ppm APP),Salmonella spp,Salmonella spp
same,Function as an antibiotic,[1],did not function satisfactorily as an antibiotic
